Measured values reported in patent US20240150369A1, “CYCLIN-DEPENDENT KINASE INHIBITING COMPOUNDS FOR THE TREATMENT OF MEDICAL DISORDERS” (G1 Therapeutics, Inc., priority 2020, published 2024).

What was measured:
Type in all cases: biochemical
[1] = target: CDK2/Cyclin A (Homo sapiens (Human), UniProt P24941); test: CDK2/Cyclin A kinase assay (Nanosyn, Caliper microfluidic); conditions: 12-point dose-response, singlicate, at Km for ATP; ATP 50 μM; 3 hr
Experimental: (§1) Selected compounds disclosed herein were tested in kinase assays by Nanosyn (Santa Clara, CA) to determine their inhibitory effect on these CDKs. The assays were performed using microfluidic kinase detection technology (Caliper Assay Platform). The compounds were tested in 12-point dose-response format in singlicate at Km for ATP. Specifics of each assay are as described below:
CDK2/Cyclin A: Enzyme concentration: 0.1 nM; ATP concentration: 50 μM; Incubation time: 3 hr.

[2] = target: CDK2/Cyclin E (Homo sapiens (Human), UniProt P24941); test: CDK2/Cyclin E kinase assay (Nanosyn, Caliper microfluidic); conditions: 12-point dose-response, singlicate, at Km for ATP; ATP 100 μM; 3 hr
Experimental: as §1
CDK2/Cyclin E: Enzyme concentration: 0.15 nM; ATP concentration: 100 μM; Incubation time: 3 hr.

[3] = target: CDK4/Cyclin D1 (Homo sapiens (Human), UniProt P11802); test: CDK4/Cyclin D1 kinase assay (Nanosyn, Caliper microfluidic); conditions: 12-point dose-response, singlicate, at Km for ATP; ATP 200 μM; 3 hr
Experimental: as §1
CDK4/Cyclin D1: Enzyme concentration: 1 nM; ATP concentration: 200 μM; Incubation time: 3 hr.

[4] = target: CDK6/Cyclin D3 (Homo sapiens (Human), UniProt Q00534); test: CDK6/Cyclin D3 kinase assay (Nanosyn, Caliper microfluidic); conditions: 12-point dose-response, singlicate, at Km for ATP; ATP 300 μM; 3 hr
Experimental: as §1
CDK6/Cyclin D3: Enzyme concentration: 2 nM; ATP concentration: 300 μM; Incubation time: 3 hr.

[5] = target: CDK9/Cyclin T1 (Homo sapiens (Human), UniProt P50750); test: CDK9/Cyclin T1 kinase assay (Nanosyn, Caliper microfluidic); conditions: 12-point dose-response, singlicate, at Km for ATP; ATP 10 μM; 17 hr
Experimental: as §1
CDK9/Cyclin T1: Enzyme concentration: 5 nM; ATP concentration: 10 μM; Incubation time: 17 hr.

[6] = target: CDK1/Cyclin B1 (Homo sapiens (Human), UniProt P06493); test: CDK1/Cyclin B1 kinase assay (Nanosyn, Caliper microfluidic); conditions: 12-point dose-response, singlicate, at Km for ATP; ATP 40 μM; 3 hr
Experimental: as §1
CDK1/Cyclin B1: Enzyme concentration: 0.08 nM; ATP concentration: 40 μM; Incubation time: 3 hr.

[7] = target: CDK3-CYCLIN-E (Homo sapiens (Human), UniProt Q00526); test: CDK3-Cyclin-E kinase assay (Nanosyn, Caliper microfluidic); conditions: 12-point dose-response, singlicate, at Km for ATP
Experimental: as §1, with “ATP.” for “ATP. Specifics of each assay are as described below:”

[8] = target: CDK5-p25 (Homo sapiens (Human), UniProt Q00535); test: CDK5-p25 kinase assay (Nanosyn, Caliper microfluidic); conditions: 12-point dose-response, singlicate, at Km for ATP
Experimental: as §1, with “ATP.” for “ATP. Specifics of each assay are as described below:”

[9] = target: CDK7 (Homo sapiens (Human), UniProt P50613); test: CDK7 kinase assay (Nanosyn, Caliper microfluidic); conditions: 12-point dose-response, singlicate, at Km for ATP
Experimental: as §1, with “ATP.” for “ATP. Specifics of each assay are as described below:”

Chain of CDK9/Cyclin T1 (P50750 whole entry): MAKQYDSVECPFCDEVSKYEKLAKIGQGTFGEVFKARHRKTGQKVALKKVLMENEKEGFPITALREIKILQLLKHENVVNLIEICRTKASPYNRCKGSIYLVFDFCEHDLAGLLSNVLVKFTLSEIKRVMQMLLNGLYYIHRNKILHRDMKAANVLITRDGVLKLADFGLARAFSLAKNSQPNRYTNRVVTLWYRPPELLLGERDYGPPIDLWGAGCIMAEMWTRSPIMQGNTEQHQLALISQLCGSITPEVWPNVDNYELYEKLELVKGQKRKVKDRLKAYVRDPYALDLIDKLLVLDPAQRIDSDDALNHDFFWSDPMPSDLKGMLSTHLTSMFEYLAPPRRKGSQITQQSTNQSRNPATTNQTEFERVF
Chain of CDK9/Cyclin T1 (O60563 whole entry partner): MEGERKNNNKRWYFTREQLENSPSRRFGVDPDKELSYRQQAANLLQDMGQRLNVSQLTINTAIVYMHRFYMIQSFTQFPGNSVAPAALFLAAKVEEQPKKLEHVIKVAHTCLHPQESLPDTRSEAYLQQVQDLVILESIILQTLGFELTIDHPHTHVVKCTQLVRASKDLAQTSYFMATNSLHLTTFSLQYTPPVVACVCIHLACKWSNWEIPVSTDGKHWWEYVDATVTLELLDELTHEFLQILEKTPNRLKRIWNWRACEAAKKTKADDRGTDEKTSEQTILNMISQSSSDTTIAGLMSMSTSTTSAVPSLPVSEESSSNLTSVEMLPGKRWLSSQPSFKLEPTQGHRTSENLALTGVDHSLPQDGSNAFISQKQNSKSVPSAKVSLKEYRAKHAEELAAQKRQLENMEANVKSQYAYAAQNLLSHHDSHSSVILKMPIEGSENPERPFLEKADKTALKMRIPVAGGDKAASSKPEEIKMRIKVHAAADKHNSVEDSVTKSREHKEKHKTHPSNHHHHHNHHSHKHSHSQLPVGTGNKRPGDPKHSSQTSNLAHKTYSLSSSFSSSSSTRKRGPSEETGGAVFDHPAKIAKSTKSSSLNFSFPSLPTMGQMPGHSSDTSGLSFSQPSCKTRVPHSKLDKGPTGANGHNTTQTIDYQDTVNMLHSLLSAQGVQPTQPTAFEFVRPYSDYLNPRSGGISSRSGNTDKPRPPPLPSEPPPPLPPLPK
Chain of CDK4/Cyclin D1 (P11802 whole entry): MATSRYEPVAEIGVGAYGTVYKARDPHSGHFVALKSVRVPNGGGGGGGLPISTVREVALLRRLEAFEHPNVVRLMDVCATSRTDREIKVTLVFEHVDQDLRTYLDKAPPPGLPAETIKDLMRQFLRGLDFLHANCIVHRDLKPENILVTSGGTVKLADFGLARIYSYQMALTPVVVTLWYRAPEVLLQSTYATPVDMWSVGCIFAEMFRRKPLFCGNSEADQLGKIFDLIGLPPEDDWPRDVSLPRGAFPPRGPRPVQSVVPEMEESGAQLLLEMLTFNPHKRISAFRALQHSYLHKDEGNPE
Chain of CDK4/Cyclin D1 (P24385 whole entry partner): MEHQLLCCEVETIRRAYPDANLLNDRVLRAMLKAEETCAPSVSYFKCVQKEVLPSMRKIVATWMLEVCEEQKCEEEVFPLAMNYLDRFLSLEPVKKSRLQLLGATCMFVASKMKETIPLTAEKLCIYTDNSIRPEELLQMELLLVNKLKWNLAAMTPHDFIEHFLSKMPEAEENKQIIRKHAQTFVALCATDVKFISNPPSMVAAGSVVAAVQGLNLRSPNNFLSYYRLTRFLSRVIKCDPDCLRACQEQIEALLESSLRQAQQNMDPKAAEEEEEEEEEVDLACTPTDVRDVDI
Chain of CDK7 (P50613 whole entry): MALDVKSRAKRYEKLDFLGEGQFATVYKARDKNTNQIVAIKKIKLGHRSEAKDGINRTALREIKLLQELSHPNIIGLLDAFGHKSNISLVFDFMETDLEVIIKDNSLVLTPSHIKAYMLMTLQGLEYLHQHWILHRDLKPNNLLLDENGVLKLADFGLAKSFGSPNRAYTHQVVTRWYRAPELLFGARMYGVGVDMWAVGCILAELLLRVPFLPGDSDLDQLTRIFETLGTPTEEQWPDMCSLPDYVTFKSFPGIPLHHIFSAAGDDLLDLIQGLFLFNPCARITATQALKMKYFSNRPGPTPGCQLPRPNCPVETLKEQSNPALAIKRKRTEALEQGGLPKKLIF
Chain of CDK7 (P51946 whole entry partner): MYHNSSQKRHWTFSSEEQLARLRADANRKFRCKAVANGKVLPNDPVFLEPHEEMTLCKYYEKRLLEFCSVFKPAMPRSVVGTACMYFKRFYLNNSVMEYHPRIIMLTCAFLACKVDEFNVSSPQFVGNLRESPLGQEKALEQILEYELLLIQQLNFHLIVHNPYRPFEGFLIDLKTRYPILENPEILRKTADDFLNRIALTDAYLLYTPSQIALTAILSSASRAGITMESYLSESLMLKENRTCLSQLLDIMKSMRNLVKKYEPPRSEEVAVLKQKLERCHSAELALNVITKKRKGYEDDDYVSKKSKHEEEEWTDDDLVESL
Chain of CDK7 (P51948 whole entry partner): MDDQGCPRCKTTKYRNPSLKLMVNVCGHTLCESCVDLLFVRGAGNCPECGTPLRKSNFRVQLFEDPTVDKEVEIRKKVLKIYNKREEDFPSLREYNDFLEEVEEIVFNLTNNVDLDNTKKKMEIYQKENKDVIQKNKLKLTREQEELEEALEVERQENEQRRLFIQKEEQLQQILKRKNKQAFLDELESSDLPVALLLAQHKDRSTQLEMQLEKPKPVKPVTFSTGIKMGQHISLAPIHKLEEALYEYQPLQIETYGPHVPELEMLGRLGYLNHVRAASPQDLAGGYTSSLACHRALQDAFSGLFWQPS
Chain of CDK6/Cyclin D3 (Q00534 whole entry): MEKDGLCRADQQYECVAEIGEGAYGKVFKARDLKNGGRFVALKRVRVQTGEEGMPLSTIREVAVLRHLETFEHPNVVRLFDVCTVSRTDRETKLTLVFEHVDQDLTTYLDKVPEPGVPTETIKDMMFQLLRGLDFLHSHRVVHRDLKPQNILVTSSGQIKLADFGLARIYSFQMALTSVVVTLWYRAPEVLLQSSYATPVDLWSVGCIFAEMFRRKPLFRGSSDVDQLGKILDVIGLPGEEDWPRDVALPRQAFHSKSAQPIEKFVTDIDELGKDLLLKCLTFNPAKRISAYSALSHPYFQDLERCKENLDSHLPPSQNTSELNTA
Chain of CDK6/Cyclin D3 (P30281 whole entry partner): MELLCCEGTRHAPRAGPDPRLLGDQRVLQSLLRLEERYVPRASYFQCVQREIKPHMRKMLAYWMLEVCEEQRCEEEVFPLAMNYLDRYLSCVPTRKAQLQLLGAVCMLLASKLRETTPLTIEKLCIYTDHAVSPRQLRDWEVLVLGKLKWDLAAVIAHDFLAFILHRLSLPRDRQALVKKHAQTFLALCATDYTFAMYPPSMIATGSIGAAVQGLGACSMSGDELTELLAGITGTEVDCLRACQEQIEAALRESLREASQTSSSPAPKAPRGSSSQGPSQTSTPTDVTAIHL
Chain of CDK5-p25 (Q00535 whole entry): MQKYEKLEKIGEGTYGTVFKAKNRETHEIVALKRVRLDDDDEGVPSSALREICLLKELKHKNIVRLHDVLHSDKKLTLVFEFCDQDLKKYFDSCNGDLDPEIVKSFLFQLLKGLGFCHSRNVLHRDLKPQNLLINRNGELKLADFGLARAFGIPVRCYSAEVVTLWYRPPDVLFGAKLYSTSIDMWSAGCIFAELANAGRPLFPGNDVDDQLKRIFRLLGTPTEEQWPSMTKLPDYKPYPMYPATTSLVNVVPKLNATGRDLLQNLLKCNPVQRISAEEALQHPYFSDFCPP
Chain of CDK5-p25 (Q15078 99-307 partner): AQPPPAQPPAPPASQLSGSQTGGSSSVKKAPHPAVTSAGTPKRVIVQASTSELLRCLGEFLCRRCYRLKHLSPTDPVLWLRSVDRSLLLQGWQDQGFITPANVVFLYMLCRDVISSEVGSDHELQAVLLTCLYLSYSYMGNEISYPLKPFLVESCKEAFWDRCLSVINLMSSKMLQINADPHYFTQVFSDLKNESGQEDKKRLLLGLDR
Chain of CDK1/Cyclin B1 (P06493 whole entry): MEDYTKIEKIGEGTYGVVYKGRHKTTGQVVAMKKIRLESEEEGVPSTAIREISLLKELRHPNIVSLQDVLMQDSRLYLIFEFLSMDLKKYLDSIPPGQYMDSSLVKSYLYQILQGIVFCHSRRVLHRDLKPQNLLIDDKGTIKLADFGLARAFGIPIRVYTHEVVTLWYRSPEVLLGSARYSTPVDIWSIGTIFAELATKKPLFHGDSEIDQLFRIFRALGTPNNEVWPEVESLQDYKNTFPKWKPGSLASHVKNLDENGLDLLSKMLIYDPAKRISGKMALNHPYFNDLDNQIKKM
Chain of CDK1/Cyclin B1 (P14635 whole entry partner): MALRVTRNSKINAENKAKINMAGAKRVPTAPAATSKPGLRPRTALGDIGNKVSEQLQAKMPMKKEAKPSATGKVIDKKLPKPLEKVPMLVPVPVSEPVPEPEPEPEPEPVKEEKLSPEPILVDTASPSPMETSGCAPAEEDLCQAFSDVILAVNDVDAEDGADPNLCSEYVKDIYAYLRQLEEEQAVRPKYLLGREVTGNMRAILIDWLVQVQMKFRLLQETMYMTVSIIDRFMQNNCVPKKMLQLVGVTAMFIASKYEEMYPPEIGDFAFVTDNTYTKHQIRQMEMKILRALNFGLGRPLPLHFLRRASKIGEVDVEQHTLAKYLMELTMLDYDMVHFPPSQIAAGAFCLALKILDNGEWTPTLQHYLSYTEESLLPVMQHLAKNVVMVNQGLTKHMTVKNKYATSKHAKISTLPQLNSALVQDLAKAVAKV

IC50 [1] | IC50 [2] | IC50 [3] | IC50 [4] | IC50 [5] | IC50 [6] | IC50 [7] | IC50 [8] | IC50 [9] | Structure (SMILES)
0.00016 µM | 0.00034 µM | 0.0031 µM | 0.0075 µM | 0.0014 µM | 0.0022 µM | 0.00094 µM | 0.0008 µM | 0.56 µM | NS(=O)(=O)c1ccc(Nc2ncc3cc4n(c3n2)C2(CCCCC2)C(=O)NC4O)cc1 (stereo not drawn) [Compound 1, 4-((6′-hydroxy-8′-oxo-7′,8′-dihydro-6′H-spiro[cyclohexane-1,9′-pyrazino[1′,2′:1,5]pyrrolo[2,3-d]pyrimidin]-2'-yl)amino)benzenesulfonamide]
0.0004 µM | 0.0005 µM | 0.041 µM | 0.098 µM | 0.0045 µM | 0.0037 µM | 0.0028 µM | 0.0013 µM | 0.2 µM | NS(=O)(=O)c1ccc(Nc2ncc3cc4n(c3n2)C2(CCCCC2)CC(=O)N4)cc1 [Compound 2, 4-((7′-oxo-7′,8′-dihydro-6′H-spiro[cyclohexane-1,9′-pyrrolo[1,5-a:2,3-d′]dipyrimidin]-2′-yl)amino)benzenesulfonamide]
0.0025 µM | 0.00056 µM | 0.13 µM | 0.35 µM | 0.062 µM | 0.033 µM | 0.0099 µM | 0.014 µM | > 1 µM | NS(=O)(=O)c1ccc(Nc2ncc3cc4n(c3n2)C2(CCCCC2)C(=O)NN4)cc1 [Compound 3, 4-((3′-oxo-2′,3′-dihydro-1′H-spiro[cyclohexane-1,4′-pyrimido[5′,4′:4,5]pyrrolo[2,1-c][1,2,4]triazin]-7′-yl)amino)benzenesulfonamide]
0.0092 µM | 0.013 µM | 0.028 µM | 0.16 µM | 0.18 µM | 0.088 µM | 0.059 µM | 0.14 µM | > 1 µM | CN1NC(=O)C2(CCCCC2)n2c1cc1cnc(Nc3ccc(S(N)(=O)=O)cc3)nc12 [Compound 12, 4-((1′-methyl-3′-oxo-2′,3′-dihydro-1′H-spiro[cyclohexane-1,4′-pyrimido[5′,4′:4,5]pyrrolo[2,1-c][1,2,4]triazin]-7′-yl)amino)benzenesulfonamide]
0.0017 µM | 0.0027 µM | 0.033 µM | 0.15 µM | 0.01 µM | 0.02 µM | 0.018 µM | 0.017 µM | 0.84 µM | NS(=O)(=O)c1ccc(Nc2ncc3cc4n(c3n2)C2(CCCCC2)C(=O)N[C@H]4CF)cc1 [Compound 18, (R)-4-((6′-(fluoromethyl)-8′-oxo-7′,8′-dihydro-6′H-spiro[cyclohexane-1,9′-pyrazino[1′,2′:1,5]pyrrolo[2,3-d]pyrimidin]-2′-yl)amino)benzenesulfonamide]
0.0043 µM | 0.0048 µM | 0.04 µM | 0.21 µM | 0.022 µM | 0.04 µM | 0.034 µM | 0.062 µM | 0.8 µM | C[C@@H]1NC(=O)C2(CCCCC2)n2c1cc1cnc(Nc3ccc(S(N)(=O)=O)cc3)nc12 [Compound 19, (S)-4-((6′-methyl-8′-oxo-7′,8′-dihydro-6′H-spiro[cyclohexane-1,9′-pyrazino[1′,2′:1,5]pyrrolo[2,3-d]pyrimidin]-2′-yl)amino)benzenesulfonamide]
0.002 µM | 0.004 µM | 0.002 µM | 0.005 µM | 0.01 µM | 0.027 µM | 0.01 µM | – | 0.615 µM | CN1CCN(C(=O)c2ccc(Nc3ncc4cc5n(c4n3)C3(CCCCC3)C(=O)NC5O)cc2)CC1 (stereo not drawn) [Compound 53, 6′-hydroxy-2′-((4-(4-methylpiperazine-1-carbonyl)phenyl)amino)-6′,7′-dihydro-8′H-spiro[cyclohexane-1,9′-pyrazino[1′,2′:1,5]pyrrolo[2,3-d]pyrimidin]-8′-one]
0.002 µM | 0.001 µM | 0.003 µM | 0.007 µM | 0.007 µM | 0.012 µM | 0.008 µM | – | 0.144 µM | CN1CCN(C(=O)c2ccc(Nc3ncc4cc5n(c4n3)C3(CCCCC3)CC(=O)N5)cc2)CC1 [Compound 54, 2′-((4-(4-methylpiperazine-1-carbonyl)phenyl)amino)-6′H-spiro[cyclohexane-1,9′-pyrrolo[1,5-a:2,3-d′]dipyrimidin]-7′(8′H)-one]
0.0006 µM | 0.001 µM | 0.0003 µM | 0.0004 µM | 0.001 µM | 0.005 µM | 0.006 µM | – | 0.027 µM | O=C1NCC2(CCCCC2)n2c1cc1cnc(Nc3ccc(C(=O)N4CCNCC4)cc3)nc12 [Compound 55, 2′-((4-(piperazine-1-carbonyl)phenyl)amino)-7′,8′-dihydro-6′H-spiro[cyclohexane-1,9′-pyrazino[1′,2′:1,5]pyrrolo[2,3-d]pyrimidin]-6′-one]
0.005 µM | 0.003 µM | 0.137 µM | 0.123 µM | 0.005 µM | 0.042 µM | 0.057 µM | – | 0.016 µM | CC1C(=O)Nc2cc3cnc(Nc4ccc(S(=O)(=O)N5CCN(C)CC5)cc4)nc3n2C12CCCCC2 (stereo not drawn) [Compound 59, 8′-methyl-2′-((4-((4-methylpiperazin-1-yl)sulfonyl)phenyl)amino)-6′H-spiro[cyclohexane-1,9′-pyrrolo[1,5-a:2,3-d′]dipyrimidin]-7′(8′H)-one]
0.017 µM | 0.004 µM | 0.017 µM | 0.04 µM | 0.19 µM | 0.133 µM | 0.058 µM | – | > 1 µM | O=C(c1ccc(Nc2ncc3cc4n(c3n2)C2(CCCCC2)C(=O)NN4)cc1)N1CCNCC1 [Compound 61, 7′-((4-(piperazine-1-carbonyl)phenyl)amino)-1′,2′-dihydro-3′H-spiro[cyclohexane-1,4′-pyrimido[5′,4′:4,5]pyrrolo[2,1-c][1,2,4]triazin]-3′-one]
0.061 µM | 0.014 µM | 0.082 µM | 0.216 µM | 0.398 µM | 0.727 µM | 0.187 µM | – | > 1 µM | CN(C)C(=O)c1ccc(Nc2ncc3cc4n(c3n2)C2(CCCCC2)C(=O)NN4)cc1 [Compound 62, N,N-dimethyl-4-((3′-oxo-2′,3′-dihydro-1′H-spiro[cyclohexane-1,4′-pyrimido[5′,4′:4,5]pyrrolo[2,1-c][1,2,4]triazin]-7′-yl)amino)benzamide]
0.081 µM | 0.033 µM | 0.253 µM | 0.578 µM | 0.118 µM | 0.574 µM | 0.096 µM | – | 0.579 µM | NC(=O)c1ccc(Nc2ncc3cc4n(c3n2)C2(CCCCC2)C(=O)NN4)cc1 [Compound 63, 4-((3′-oxo-2′,3′-dihydro-1′H-spiro[cyclohexane-1,4′-pyrimido[5′,4′:4,5]pyrrolo[2,1-c][1,2,4]triazin]-7′-yl)amino)benzamide]
0.085 µM | 0.023 µM | 0.132 µM | 0.417 µM | 0.085 µM | 0.505 µM | 0.105 µM | – | > 1 µM | CNC(=O)c1ccc(Nc2ncc3cc4n(c3n2)C2(CCCCC2)C(=O)NN4)cc1 [Compound 64, N-methyl-4-((3′-oxo-2′,3′-dihydro-1′H-spiro[cyclohexane-1,4′-pyrimido[5′,4′:4,5]pyrrolo[2,1-c][1,2,4]triazin]-7′-yl)amino)benzamide]
0.029 µM | 0.008 µM | 0.06 µM | 0.137 µM | 0.653 µM | 0.258 µM | 0.106 µM | – | > 1 µM | O=C(c1ccc(Nc2ncc3cc4n(c3n2)C2(CCCCC2)C(=O)NN4)cc1)N1CCOCC1 [Compound 74, 7′-((4-(morpholine-4-carbonyl)phenyl)amino)-1′,2′-dihydro-3′H-spiro[cyclohexane-1,4′-pyrimido[5′,4′:4,5]pyrrolo[2,1-c][1,2,4]triazin]-3′-one]
